For the experiment, the target named is interaction of human SOS1 (SOS1) with human K-RasG12C (Homo sapiens (Human), UniProt Q07889). Description: Biochemical assay: hK-RasG12C interaction assay with hSOS1 (HTRF). Type of experiment: binding. To be noted: GST-hK-RasG12C with His-hSOS1, 60 min incubation at 20° C., mean, read-out: K-RasG12C - SOS interaction assay IC50 (mean). The method in brief:
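Compounds, duplicates at 11 concentrations from 0.073 nM to 20 µM, were preincubated 2 min with 10 nM GST-hK-RasG12C, then 20 nM His-hSOS1 was added, all at 20 °C. After 60 min, 665/620 nm HTRF ratio normalized to DMSO and SOS1-free controls; IC50 by 4-parameter fit.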
On the technique in general: Time-resolved FRET reads energy transfer from a long-lived donor to a nearby acceptor.
Sequence of interaction of human SOS1 (SOS1) with human K-RasG12C (Q07889 564-1049 limits assumed): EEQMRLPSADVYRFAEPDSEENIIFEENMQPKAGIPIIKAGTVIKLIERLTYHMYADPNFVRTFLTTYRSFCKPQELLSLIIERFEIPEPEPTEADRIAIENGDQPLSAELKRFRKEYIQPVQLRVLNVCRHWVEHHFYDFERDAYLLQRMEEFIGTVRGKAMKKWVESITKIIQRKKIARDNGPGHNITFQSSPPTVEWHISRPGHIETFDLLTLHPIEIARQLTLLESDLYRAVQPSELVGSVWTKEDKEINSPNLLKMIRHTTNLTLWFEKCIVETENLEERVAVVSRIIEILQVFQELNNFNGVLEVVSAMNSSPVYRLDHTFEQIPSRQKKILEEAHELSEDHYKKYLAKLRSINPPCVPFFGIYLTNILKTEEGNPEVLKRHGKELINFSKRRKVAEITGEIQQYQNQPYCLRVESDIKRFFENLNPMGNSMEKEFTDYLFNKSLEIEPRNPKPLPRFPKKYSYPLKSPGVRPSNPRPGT
For `CCCCC(C)(O)C(F)(F)c1cccc([C@@H](C)Nc2nc(C)nc3cnc(P(C)(C)=O)cc23)c1F` (mixture of isomers) [Example 23, (2RS)-1-{3-[(1R)-1-{[6-(dimethylphosphoryl)-2-methylpyrido[3,4-d]pyrimidin-4-yl]amino}ethyl]-2-fluorophenyl}-1,1-difluoro-2-methylhexan-2-ol], the IC50 came to 12.4 nM.
To `Cc1nc(N[C@H](C)c2cccc(C(F)F)c2F)c2cc(P3(=O)CCCC3)ncc2n1` [Example 107, 1-[4-{{(1R)-1-[3-(difluoromethyl)-2-fluorophenyl]ethyl}amino)-2-methylpyrido[3,4-d]pyrimidin-6-yl]-1lambda^5-phospholan-1-one] belongs 20.5 nM.
The value for `Cc1nc(N[C@H](C)c2cccc(C(F)(F)F)c2C)c2cc(P3(=O)CCN(c4ccn(C)n4)CC3)ncc2n1` [Example 40, 4-[2-methyl-4-({(1R)-1-[2-methyl-3-(trifluoromethyl)phenyl]ethyl}amino)pyrido[3,4-d]pyrimidin-6-yl]-1-(1-methyl-1H-pyrazol-3-yl)-1,4lambda^5-azaphosphinan-4-one] was 18.3 nM.
To `Cc1nc(N[C@H](C)c2cccc(C(F)(F)C(C)O)c2F)c2cc(P(C)(=O)C(C)C)ncc2n1` (single isomer, unassigned) [Example 82, (2R*)-1,1-difluoro-1-{2-fluoro-3-[(1R)-1-({2-methyl-6-[methyl(propan-2-yl)phosphoryl]pyrido[3,4-d]pyrimidin-4-yl}amino)ethyl]phenyl}propan-2-ol] belongs 24.5 nM.
With `COC(C)(C)C(F)(F)c1cccc([C@@H](C)Nc2nc(C)nc3cnc(P(C)(C)=O)cc23)c1F` [Example 121, N-{(1R)-1-[3-(1,1-difluoro-2-methoxy-2-methylpropyl)-2-fluorophenyl]ethyl}-6-(dimethylphosphoryl)-2-methylpyrido[3,4-d]pyrimidin-4-amine], the IC50 turned out to be 87.1 nM.
For the molecule `CC(=O)N1CCP(=O)(c2cc3c(N[C@H](C)c4cccc(C(F)F)c4C)nc(C)nc3cn2)CC1` [Example 190], the half-maximal inhibitory concentration (IC50) is 5.9 nM.
As to `Cc1nc(N[C@H](C)c2cccc(C(F)(F)C(C)(C)O)c2F)c2cc(P(C)(=O)C(C)C)ncc2n1` (single isomer, unassigned) [Example 71], the IC50 came to 35.4 nM.
In the case of `CCP(=O)(CC)c1cc2c(N[C@H](C)c3cccc(C(F)F)c3F)nc(C)nc2cn1` [Example 92, 6-(diethylphosphoryl)-N-{(1R)-1-[3-(difluoromethyl)-2-fluorophenyl]ethyl}-2-methylpyrido[3,4-d]pyrimidin-4-amine], the IC50 was 77.2 nM.
To `CC(=O)N1CCP(=O)(c2cc3c(N[C@H](C)c4cccc(C(F)F)c4)nc(C)nc3cn2)CC1` [Example 57, 1-acetyl-4-[4-{{(1R)-1-[3-(difluoromethyl)phenyl]ethyl}amino)-2-methylpyrido[3,4-d]pyrimidin-6-yl]-1,4lambda^5-azaphosphinan-4-one] belongs 19.3 nM.
The value for `CCP(C)(=O)c1cc2c(N[C@H](C)c3cccc(C(F)(F)CO)c3F)nc(C)nc2cn1` (single isomer, unassigned) [Example 132] was 11.7 nM.
The value for `Cc1nc(N[C@H](C)c2cccc(C(F)(F)F)c2C)c2cc(P3(=O)CCN(c4cnn(C)c4)CC3)ncc2n1` [Example 39, 4-[2-methyl-4-({(1R)-1-[2-methyl-3-(trifluoromethyl)phenyl]ethyl}amino)pyrido[3,4-d]pyrimidin-6-yl]-1-(1-methyl-1H-pyrazol-4-yl)-1,4lambda^5-azaphosphinan-4-one] was 11.1 nM; that for `COCC(F)(F)c1cccc([C@@H](C)Nc2nc(C)nc3cnc(P(C)(C)=O)cc23)c1F` [Example 94, N-{(1R)-1-[3-(1,1-difluoro-2-methoxyethyl)-2-fluorophenyl]ethyl}-6-(dimethylphosphoryl)-2-methylpyrido[3,4-d]pyrimidin-4-amine] was 46.5 nM.
For the molecule `Cc1nc(N[C@H](C)c2cccc(C(F)(F)F)c2C)c2cc(P3(=O)CCN(C(N)=O)CC3)ncc2n1` [Example 186], the IC50 worked out at 4.71 nM.
The value for `COCC(=O)N1CCP(=O)(c2cc3c(N[C@H](C)c4cccc(C(F)F)c4F)nc(C)nc3cn2)CC1` [Example 154, 4-[4-{{(1R)-1-[3-(difluoromethyl)-2-fluorophenyl]ethyl}amino)-2-methylpyrido[3,4-d]pyrimidin-6-yl]-1-(methoxyacetyl)-1,4lambda^5-azaphosphinan-4-one] was 6.15 nM; that for `[2H]C([2H])(O)C(F)(F)c1cccc([C@@H](C)Nc2nc(C)nc3cnc(P(C)(C)=O)cc23)c1F` [Example 60, 2-{3-[(1R)-1-{[6-(dimethylphosphoryl)-2-methylpyrido[3,4-d]pyrimidin-4-yl]amino}ethyl]-2-fluorophenyl}-2,2-difluoro(^2H2)ethan-1-ol] was 13.5 nM; that for `Cc1nc(N[C@H](C)c2cccc(C(F)(F)C(C)(C)O)c2F)c2cc(P(C)(=O)C(C)C)ncc2n1` (single isomer, unassigned) [Example 72] was 24.3 nM.
The value for `Cc1nc(N[C@H](C)c2cccc(C(F)F)c2F)c2cc(P(C)(C)=O)ccc2n1` [Example 128, N-{(1R)-1-[3-(difluoromethyl)-2-fluorophenyl]ethyl}-6-(dimethylphosphoryl)-2-methylquinazolin-4-amine] was 20.9 nM; that for `Cc1nc(N[C@H](C)c2cccc(C(F)F)c2F)c2cc(P(C)(C)=O)c(C)nc2n1` [Example 18, N-{(1R)-1-[3-(difluoromethyl)-2-fluorophenyl]ethyl}-6-(dimethylphosphoryl)-2,7-dimethylpyrido[2,3-d]pyrimidin-4-amine] was 27.7 nM; that for `Cc1nc(N[C@H](C)c2cccc(C(F)(F)CO)c2F)c2cc(P(C)(=O)C(C)C)ncc2n1` (single isomer, unassigned) [Example 134] was 25.2 nM.
The value for `Cc1nc(N[C@H](C)c2cc(N)cc(C(F)(F)F)c2)c2cc(P3(=O)CCCC3)ncc2n1` [Example 95, 1-[4-{{(1R)-1-[3-amino-5-(trifluoromethyl)phenyl]ethyl}amino)-2-methylpyrido[3,4-d]pyrimidin-6-yl]-1lambda^5-phospholan-1-one] was 23.9 nM; that for `Cc1nc(N[C@H](C)c2cccc(C(F)(F)F)c2F)c2cc(P(C)(C)=O)ncc2n1` [Example 55, 6-(dimethylphosphoryl)-N-{(1R)-1-[2-fluoro-3-(trifluoromethyl)phenyl]ethyl}-2-methylpyrido[3,4-d]pyrimidin-4-amine] was 26.2 nM; that for `CC(=O)N1CCP(=O)(c2ccc3nc(C)nc(N[C@H](C)c4cccc(C(F)(F)F)c4C)c3c2)CC1` [Example 197] was 7.4 nM.
For the molecule `Cc1nc(N[C@H](C)c2cccc(C(F)(F)C(C)O)c2F)c2cc(P(C)(=O)C(C)C)ncc2n1` (single isomer, unassigned) [Example 79, (2R*)-1,1-difluoro-1-{2-fluoro-3-[(1R)-1-({2-methyl-6-[methyl(propan-2-yl)phosphoryl]pyrido[3,4-d]pyrimidin-4-yl}amino)ethyl]phenyl}propan-2-ol], the IC50 turned out to be 12.3 nM.
The value for `Cc1nc(N[C@H](C)c2cccc(C(F)(F)CN(C)S(C)(=O)=O)c2F)c2cc(P3(=O)CCN(C(=O)C4CC4)CC3)ncc2n1` [Example 181, N-(2-{3-[(1R)-1-({6-[1-(cyclopropanecarbonyl)-4-oxo-1,4lambda^5-azaphosphinan-4-yl]-2-methylpyrido[3,4-d]pyrimidin-4-yl}amino)ethyl]-2-fluorophenyl}-2,2-difluoroethyl)-N-methylmethanesulfonamide] was 2.95 nM.
With `Cc1nc(N[C@H](C)c2cccc(C(F)(F)C(C)(C)O)c2F)c2cc(P3(=O)CC=CC3)ncc2n1` [Example 85, 1-[4-({(1R)-1-[3-(1,1-difluoro-2-hydroxy-2-methylpropyl)-2-fluorophenyl]ethyl}amino)-2-methylpyrido[3,4-d]pyrimidin-6-yl]-2,5-dihydro-1H-1lambda^5-phosphol-1-one], the IC50 worked out at 12 nM.
The value for `Cc1nc(N[C@H](C)c2cccc(C(F)(F)C(N)=O)c2F)c2cc(P(C)(C)=O)ncc2n1` [Example 48, 2-{3-[(1R)-1-{[6-(dimethylphosphoryl)-2-methylpyrido[3,4-d]pyrimidin-4-yl]amino}ethyl]-2-fluorophenyl}-2,2-difluoroacetamide] was 29.3 nM; that for `Cc1nc(N[C@H](C)c2cccc(C(F)(F)C(=O)C(C)C)c2F)c2cc(P(C)(C)=O)ncc2n1` [Example 109, 1-{3-[(1R)-1-{[6-(dimethylphosphoryl)-2-methylpyrido[3,4-d]pyrimidin-4-yl]amino}ethyl]-2-fluorophenyl}-1,1-difluoro-3-methylbutan-2-one] was 33.3 nM.
The value for `Cc1nc(N[C@H](C)c2cccc(C(F)F)c2F)c2cc(P3(=O)CCN(C(=O)c4cnn(C)c4)CC3)ncc2n1` [Example 161, 4-[4-{{(1R)-1-[3-(difluoromethyl)-2-fluorophenyl]ethyl}amino)-2-methylpyrido[3,4-d]pyrimidin-6-yl]-1-(1-methyl-1H-pyrazole-4-carbonyl)-1,4lambda^5-azaphosphinan-4-one] was 13.4 nM; that for `Cc1nc(N[C@H](C)c2cccc(C(F)(F)F)c2C)c2cc(P3(=O)CCN(C=O)CC3)ncc2n1` [Example 31, 4-[2-methyl-4-({(1R)-1-[2-methyl-3-(trifluoromethyl)phenyl]ethyl}amino)pyrido[3,4-d]pyrimidin-6-yl]-4-oxo-1,4lambda^5-azaphosphinane-1-carbaldehyde] was 6.37 nM.
On to `Cc1nc(N[C@H](C)c2cccc(C(F)F)c2F)c2cc(P(C)(=O)C(C)C)ncc2n1` (single isomer, unassigned) [Example 115], for which the IC50 stood at 80.3 nM.

A word on the IC50: it is the concentration needed to halve the response being measured.

The values above are taken from patent publication US20240247015A1, “PHOSPHORUS DERIVATIVES AS NOVEL SOS1 INHIBITORS” (BAYER AKTIENGESELLSCHAFT, priority 2021, published 2024).
